Key:
House Fly = assay: Example 11: house fly knockdown and mortality, bifenthrin and thiamethoxam; format: in vivo
Description: (§1) The following examples further illustrate the present invention, but, of course, should not be construed as in any way limiting its scope. The examples set forth certain biological data illustrating the efficacy of the compositions of the present invention in controlling general household pests. Each example embodies a separate test wherein the pests were randomly selected from a population at a random age. As a result, from example to example, the ages of the pests can be very different. This age difference potentially translates to different baselines for each example. Therefore, data should only be compared within the example and not from example to example due to the differences in age of the pests from example to example. Unless otherwise indicated, all parts, percentages, and the like are by weight. The spray chamber used in the examples was approximately 76 inches tall, 73 inches long and 31 inches deep with an adjustable shelf (approximately 22 inches deep) and a movable spray nozzle. The spray chambers were calibrated to deliver a volume of approximately 1 gallon of liquid per 1000 square feet of area at about 14 pounds per square inch of pressure. A DeVilbiss hand held sprayer (Atomizer model 152) manufactured by DeVilbiss located in Glendale Heights, Ill. was used in testing house flies and mosquitoes. The DeVilbiss was used to apply approximately 3-5 milliliters of product at about 10 pounds per square inch.
The compositions of the present invention were tested for house fly activity in the following manner:
(§2) Test compositions made up of TALSTARONE® MULTI-INSECTICIDE and a water dispersible granular of thiamethoxam (CENTRIC) in distilled water were prepared that provided appropriate rates of application of combinations of bifenthrin and thiamethoxam, as well as bifenthrin and thiamethoxam alone.
A DeVilbiss hand held sprayer was used to deliver the treatment solution at the desired volume and pressure. The house flies to be treated were collected and placed in screened 16 oz paper cups. The hand held sprayer was activated and the test compound was applied to each paper cup interior. House fly knockdown and mortality were measured.

Oriental cockroach = assay: Example 15: Oriental cockroach knockdown and mortality, bifenthrin and clothianidin; format: in vivo
Description: as §1
The compositions of the present invention were tested for Oriental cockroach activity in the following manner:
(§3) Test compositions made up of TALSTARONE® MULTI-INSECTICIDE and a 16% a.i. water dispersible granular of clothianidin in distilled water were prepared that provided appropriate rates of application of combinations of bifenthrin and clothianidin, as well as bifenthrin and clothianidin alone.
(§4) The spray chamber was then calibrated to deliver the treatment solution at the desired volume and pressure over the desired area on the chamber shelf. Spray chamber shelf height was adjusted to approximately 18 inches from the spray tip. The shelf was then covered with aluminum foil and the center of the shelf from front-to-back and end-to-end was determined. A desired number of 4.0″ sieve circles were marked on the aluminum foil with a permanent marker. The inside of a desired number of PVC rings were coated with a petroleum jelly/mineral oil mixture (1:2 ratio). The PVC rings were place on the sieve circles. 10 male Oriental cockroaches were placed inside each PVC ring. The sprayer was activated and the test compound was applied to each PVC ring interior. Oriental cockroach knockdown and mortality were measured.

Red Imported Fire Ant = assay: Example 16: red imported fire ant knockdown and mortality, bifenthrin and clothianidin; format: in vivo, Solenopsis invicta
Description: as §1
The compositions of the present invention were tested for red imported fire ant activity in the following manner:
as §3
The spray chamber was then calibrated to deliver the treatment solution at the desired volume and pressure over the desired area on the chamber shelf. Spray chamber shelf height was adjusted to approximately 18 inches from the spray tip. The shelf was then covered with aluminum foil and the center of the shelf from front-to-back and end-to-end was determined. The red imported fire ants to be treated were collected and placed in screened 16 oz paper cups. The paper cups were placed onto the aluminum foil on the spray chamber shelf. The sprayer was activated and the test compound was applied to each paper cup interior. Red imported fire ant knockdown and mortality were measured.

German cockroach = assay: Example 8: German cockroach mortality, bifenthrin and thiamethoxam; format: in vivo
Description: as §1
The compositions of the present invention were tested for German cockroach activity in the following manner:
as §2
as §4, with “male German” for “male Oriental”, “interior. German” for “interior. Oriental”, “cockroach” for “cockroach knockdown and”, “mortality was” for “mortality were”

[1] = rate of appln. 10 PPM (0.001% by weight)
[2] = rate of appln. 50 PPM (0.005% by weight)

For `Cc1c(COC(=O)[C@@H]2[C@H](/C=C(\Cl)C(F)(F)F)C2(C)C)cccc1-c1ccccc1` (racemic) [A, 2-methylbiphenyl-3-ylmethyl (Z)-(1RS)-cis-3-(2-chloro-3,3,3-trifluoroprop-1-enyl)-2,2-dimethylcyclopropanecarboxylate], the “Knockdown Rate @ 15 minute” value (House Fly; A 10 PPM, 0.001% by weight) was 0%, the “Knockdown Rate @ 30 minute” value (House Fly; A 10 PPM, 0.001% by weight) was 0% and the “Knockdown Rate @ 45 minutes” value (House Fly; A 10 PPM, 0.001% by weight) was 6%. For the same compound, the “Knockdown Rate @ 60 minutes” value (House Fly; A 10 PPM, 0.001% by weight) was 19%, the “Knockdown Rate @ 120 minutes” value (House Fly; A 10 PPM, 0.001% by weight) was 19% and the “Knockdown Rate @ 4 hours” value (House Fly; A 10 PPM, 0.001% by weight) was 48%. The “Mortality Rate @ 1 day” value (House Fly; A 10 PPM, 0.001% by weight) was 3%, the “Knockdown Rate @ 15 minute” value (House Fly; A 50 PPM, 0.005% by weight) was 0% and the “Knockdown Rate @ 30 minute” value (House Fly; A 50 PPM, 0.005% by weight) was 19%. For the same compound, the “Knockdown Rate @ 45 minutes” value (House Fly; A 50 PPM, 0.005% by weight) was 47%, the “Knockdown Rate @ 60 minutes” value (House Fly; A 50 PPM, 0.005% by weight) was 59% and the “Knockdown Rate @ 120 minutes” value (House Fly; A 50 PPM, 0.005% by weight) was 63%. The “Knockdown Rate @ 4 hours” value (House Fly; A 50 PPM, 0.005% by weight) was 100%, the “Mortality Rate @ 1 day” value (House Fly; A 50 PPM, 0.005% by weight) was 63% and the “Knockdown Rate @ 10 minute” value (Oriental cockroach; [1]) was 0%. The “Knockdown Rate @ 15 minute” value (Oriental cockroach; [1]) was 0%, the “Knockdown Rate @ 30 minute” value (Oriental cockroach; [1]) was 0% and the “Mortality Rate @ 60 minute” value (Oriental cockroach; [1]) was 0%. For the same compound, the “Mortality Rate @ 120 minute” value (Oriental cockroach; [1]) was 0%, the “Mortality Rate @ 4 hours” value (Oriental cockroach; [1]) was 0% and the “Mortality Rate @ 1 day” value (Oriental cockroach; [1]) was 0%. The “Mortality Rate @ 2 days” value (Oriental cockroach; [1]) was 3%, the “Knockdown Rate @ 10 minute” value (Oriental cockroach; [2]) was 0% and the “Knockdown Rate @ 15 minute” value (Oriental cockroach; [2]) was 0%. The “Knockdown Rate @ 30 minute” value (Oriental cockroach; [2]) was 0%, the “Mortality Rate @ 60 minute” value (Oriental cockroach; [2]) was 0% and the “Mortality Rate @ 120 minute” value (Oriental cockroach; [2]) was 0%. The “Mortality Rate @ 4 hours” value (Oriental cockroach; [2]) was 10%, the “Mortality Rate @ 1 day” value (Oriental cockroach; [2]) was 20% and the “Mortality Rate @ 2 days” value (Oriental cockroach; [2]) was 23%. The “Knockdown Rate @ 5 minute” value (Red Imported Fire Ant; [1]) was 30%, the “Knockdown Rate @ 10 minute” value (Red Imported Fire Ant; [1]) was 93% and the “Knockdown Rate @ 15 minute” value (Red Imported Fire Ant; [1]) was 95%. For the same compound, the “Knockdown Rate @ 30 minutes” value (Red Imported Fire Ant; [1]) was 100%, the “Mortality Rate @ 60 minutes” value (Red Imported Fire Ant; [1]) was 65% and the “Mortality Rate @ 120 minutes” value (Red Imported Fire Ant; [1]) was 100%. The “Mortality Rate @ 4 hours” value (Red Imported Fire Ant; [1]) was 100%, the “Knockdown Rate @ 5 minute” value (Red Imported Fire Ant; [2]) was 10% and the “Knockdown Rate @ 10 minute” value (Red Imported Fire Ant; [2]) was 70%. The “Knockdown Rate @ 15 minute” value (Red Imported Fire Ant; [2]) was 95%, the “Knockdown Rate @ 30 minutes” value (Red Imported Fire Ant; [2]) was 100% and the “Mortality Rate @ 60 minutes” value (Red Imported Fire Ant; [2]) was 100%. The “Mortality Rate @ 120 minutes” value (Red Imported Fire Ant; [2]) was 100%, the “Mortality Rate @ 4 hours” value (Red Imported Fire Ant; [2]) was 100% and the “Mortality Rate @ 60 minutes” value (German cockroach; 10 PPM, 0.001% by weight) was 8%. For the same compound, the “Mortality Rate @ 120 minutes” value (German cockroach; 10 PPM, 0.001% by weight) was 33%, the “Mortality Rate @ 1 day” value (German cockroach; 10 PPM, 0.001% by weight) was 35% and the “Mortality Rate @ 2 day” value (German cockroach; 10 PPM, 0.001% by weight) was 60%. For the same compound, the “Mortality Rate @ 4 days” value (German cockroach; 10 PPM, 0.001% by weight) was 98%, the “Mortality Rate @ 60 minutes” value (German cockroach; 50 PPM, 0.005% by weight) was 15% and the “Mortality Rate @ 120 minutes” value (German cockroach; 50 PPM, 0.005% by weight) was 48%. For the same compound, the “Mortality Rate @ 1 day” value (German cockroach; 50 PPM, 0.005% by weight) was 58%, the “Mortality Rate @ 2 day” value (German cockroach; 50 PPM, 0.005% by weight) was 100% and the “Mortality Rate @ 4 days” value (German cockroach; 50 PPM, 0.005% by weight) was 100%.
